According to US20240342177A1, “METHODS OF TREATING BRAIN CANCER” (priority 2021, published 2024):

How the values were obtained:
P008480 (Ependymoma) = assay: In vitro efficacy, dose response in ependymoma culture
Method: (§1) The composition used in the methods of the present disclosure was tested at a 5-FU to FA (Leucovorin) ratio of 15:1 (termed ‘Deflexifol’), and compared to 5-FU as a single agent (‘5-FU’); FA (Leucovorin) as a single agent (‘Leucovorin’); or a combination of 5-FU and FA (Leucovorin) (‘5-FU+Leucovorin’).
(§2) Screening was conducted in a 96-well format, with N=4 curves, using: • three different DMG cell lines: P002306, DIPG-7 and RA055 • one ependymoma culture and • one set of healthy astrocytes (control model system).

[1] = test system: U-87-MG human glioblastoma cell line; assay: U-87-MG cell proliferation (Incucyte confluency); type: cell-based; details: 72 hours with drug, 5-FU concentration, read-out: IC50, inhibiting cell proliferation
Method: U-87-MG cells are maintained in DMEM (high glucose)+10% FCS
• 96-well 2D format (triplicate wells per drug concentration). • Cells seeded at 10,000 cells/well>24 hours incubation. • Drugs added 24 hours later and cells incubated a further 72 hours. • Cells imaged every 6 hours using Incucyte ZOOM for cell proliferation (confluency measurement) and evidence of cell death.

DIPG-7 (DMG) = assay: In vitro efficacy, dose response in DMG neurospheres DIPG-7; details: Homo sapiens
Method: (§3) Assessment of in vitro activity of the composition used in the methods of the present disclosure was undertaken in patient-derived Diffuse Midline Glioma (DMG) neurospheres.
(§4) In particular, activity of the composition against human DMG cells was compared to that of 5-FU, a combination of 5-FU and FA, or a media control.
as §1
(§5) The tested concentrations were selected with reference to the clinical maximum tolerated plasma concentration of 5-FU (530 μM), as detailed in Table 5.
as §2

P000302 (Healthy cells) = assay: In vitro dose response in healthy astrocytes (control model system)
Method: as §1, §2

P002306 (DMG) = assay: In vitro efficacy, dose response in DMG neurospheres P002306
Method: as §3, §4, §1, §5, §2

[2] = cited from earlier work
RA055 (DMG) = assay: In vitro efficacy, dose response in DMG neurospheres RA055
Method: as §3, §4, §1, §5, §2

Which results are given for O=c1[nH]cc(F)c(=O)[nH]1 [5-FU, 5-fluoro-2,4 (1H,3H)-pyrimidinedione]?
IC50 (P008480 (Ependymoma); Homo sapiens): > 500 µM; AUC (dose response) (P008480 (Ependymoma); P008480 (Ependymoma)): AUC: 373.2; IC50 [1]: 120 µM; IC50 (DIPG-7 (DMG)): ~22.3 µM; IC50 (P000302 (Healthy cells); Homo sapiens, Astrocyte): ~500 µM; AUC (dose response) (P000302 (Healthy cells); P000302 (Healthy cells)): AUC: 294.3; IC50 (P002306 (DMG); Homo sapiens): ~1.9 µM; AUC (dose response) (P002306 (DMG); P002306 (DMG)): AUC: 171.4; clinical maximum tolerated plasma concentration ([2]; human, in vivo): 530 µM; human tolerability of i.v.b. administration ([2]; i.v.b.): approximately 500 mg/mg^2; IC50 (RA055 (DMG); Homo sapiens): ~200 µM; AUC (dose response) (RA055 (DMG); RA055 (DMG)): AUC: 332.6
